The values that follow come from US9205135B2, “Podocyte pH modulation and uses thereof” (University of Miami, priority 2009, dated 2015).

Structures are written as SMILES. Entries after “also recorded” stand apart in the source; their conditions may differ. Residues, ends and D or L forms follow the SMILES beside them. *: point of attachment. Cbz = O=C(OCc1ccccc1)*; CH2F = FC*

In test [1] the test system is podocytes. The experiment in a line: Intracellular pH of cultured podocytes by CMFDA fluorescence. Format: cell-based, mouse. The note with it: glutamine present vs absent in culture medium; normal and α3 integrin deficient podocytes. The procedure:
Podocyte pH was assessed with CMFDA—an indicator for pH. Higher green signal is consistent with a more alkaline cell. The presence of high glutamine levels in cell culture media alkalinizes the normal podocytes as well as podocytes that lack integrin α3β1 (genetic model cells for podocyte disease) (FIG. 3A). Both, LPS and PAN treatment stimulate cathepsin L activity in podocytes. Cathepsin L activity is lower in the presence of high glutamine in the cell culture media that in turn leads to a more alkaline podocyte cytosol (FIGS. 3B, 3C).
Modification of intracellular pH by glutamine: One of the key feature in podocyte injury that can be found in all three employed cellular podocyte models is the induction of cytosolic cathepsin L that in turn cleaves critical regulators of the podocyte microfilament system resulting in a reorganization of the podocyte actin cytoskeleton and proteinuria (6). In contrast to lysosomal cathepsin L, cytosolic cathepsin L is operating under non-acidic conditions. […] We used a fluorescent dye CMFDA (5-chloromethylfluorescein diacetate) that captures changes in intracellular pH by alterations in fluorescence (25). The more alkaline the pH, the more green fluorescence is detected (FIGS. 11a-c). […] Using CMFDA, the pH in control cells was determined at 7.1 and at 7.3 in α3 integrin-KO podocytes. […]

Test [2] concerns wt podocytes. The experiment in a line: F-actin cytoskeleton staining of cultured podocytes. In kind it is cell-based, mouse. The following applies: wt podocytes after LPS treatment, glutamine in medium vs absent. The procedure:
The absence of cathepsin L protected from LPS-mediated loss of F-actin.
(§1) Cells, antibodies, and standard techniques: Mouse podocyte cell lines (15) and HEK 293 cells (6) were grown as described previously. NIH 3T3 cells were cultured in Dulbecco's modified Eagle's minimal essential medium (Invitrogen, Carlsbad, Calif.) supplemented with 10% fetal calf serum (Invitrogen) and incubated in a humidified atmosphere of 95% air and 5% CO2 at 37° C. Antibody used for immunostaining are Alexa Fluor 594 phalloidin (Molecular Probes, Eugene, Oreg.). Subcellular fractionation was performed as described previously (6).
(§2) Immunohistochemistry and immunoelectron microscopy: For immunofluorescent labeling, sections were washed once with PBS and incubated with blocking solution (2% FCS, 2% BSA, 0.2% fish gelatin) for 30 min at room temperature before further incubation with the primary antibody for 1 h at room temperature. Antigen-antibody complexes were visualized with secondary antibodies conjugated with fluorochromes. Specimens were analyzed using a Zeiss confocal microscope (Germany). Ultrathin sections of the kidneys were examined with a Philips CM10 electron microscope (The Netherlands). The number of podocytic FPs was counted in 10 different areas of representative glomeruli. In each area, the number of FPs was calculated within a distance of 1 μm on the GBM (34).

Test [3] has as its system C57BL/6 mice. Briefly: LPS-induced proteinuria model in mice. Format: in vivo, mouse. The following applies: for glomerular pH (CMFDA fluorescence of isolated glomeruli): glutamine 0.75 mg/g. The procedure: Treatment of mice with glutamine increases podocyte pH and protects from LPS-induced proteinuria: In order to translate our in vitro findings into a kidney disease relevant model, we next utilized the LPS model in mice known to cause podocyte foot process effacement and proteinuria driven by induction of cytosolic cathepsin L (6). To this end, mice were either injected with only LPS or treated with high dose (0.75 mg/g) glutamine injection 10 min after LPS administration. We analyzed the relative alkalinity of glomeruli using isolated glomeruli that were incubated with green CMFDA. […] We also tested renal function and measured proteinuria in these mice. […] These effects were also visible on an ultrastructural level.
as §2
Animals and treatments: All animal studies were performed under protocols approved by the University of Miami animal care and use committee. C57BL/6 mice were obtained from The Jackson Laboratory. The mouse model LPS-induced proteinuria was utilized as previously described (16). Glutamine (Invitrogen) is injected i.p. (0.75 mg/g mouse) 10 min after LPS ([…]) (Sigma Aldrich, St. Louis, Mo.) injection.

In test [4] the test system is cathepsin L. Briefly: Cathepsin L activity in cultured podocytes, CV-(FR)2 substrate. In kind it is cell-based, mouse. The procedure:
Subcellular sites of cathepsin L and cathepsin B activity in glomerular extracts were visualized by a fluorogenic substrate, CV-(FR)2, which emits light upon cleavage by cathepsin L or cathepsin B (Biomol).
Measurement of cathepsin L activity: Cathepsin L activities in cultured podocytes and in glomeruli was measured using CV-CatL detection kit (Biomol, Plymouth Meeting, Pa.) as described in the manufacturer's instructions. The fluorophore cresyl violet [CV-(FR)2] substrate becomes florescent after Cat L cleavage of the attached Phe-Arg groups. This substrate easily penetrates the cell membrane and the membranes of the internal cellular organelles, enabling the detection of cathepsin activity within living podocytes.

For test [5], the system named is podocytes. Briefly: Glutamine uptake rate in cultured podocytes. In kind it is cell-based, mouse. The following applies: injury stimulus. The text has this:
A podocyte metabolic model was constructed based on available databases as well as mRNA and protein expression data extracted from podocytes. The following podocyte culture models were employed: wildtype (control), LPS and PAN stimulated podocytes (inducible injury models) as well as podocytes with genetic deletion of the alpha3 gene (genetic disease model). All injury cultures increase the uptake of glutamine as well as gluconeogenic aminoacids. In addition, there is increasing ammonia production in diseased podocytes. These changes were predicted by the podocyte metabolic model and confirmed by measuring directly amino acids and ammonia (FIGS. 1A-1D).
Metabolic Flux Analysis emphasizes glutamine utilization pathways for podocyte function: We utilized cultured normal podocytes (control) (15) and three in vitro models for podocyte damage: i) podocytes with α3 integrin deletion (genetic model) (16); ii) podocytes treated with lipopolysaccharides (LPS, immunological model) (17); and iii) podocytes treated with puromycin aminonucleoside (PAN, toxic model) (18). […] Using the podocyte MFA network, we were able to extract podocyte aminoacid and glucose utilization (FIG. 10b-d) that was also independently measured in direct validation studies (data not shown). All analyzed modeling and experimentation data supported the notion that the aminoacid metabolism of podocytes is changed in disease. […]

Test [6] concerns HEK293. Briefly: Glutamine uptake rate in HEK293 cells. In kind it is cell-based. The procedure:
(§3) All together, these experiments discovered a uniform metabolic response for podocytes that are injured.
as §1

Test [7] relates to NIH 3T3. Briefly: Glutamine uptake rate in NIH 3T3 cells. Format: cell-based. The procedure:
as §3, §1

Test [8] relates to cathepsin B. The note with it: cited from earlier work.

As for `NC(=O)CC[C@H](N)C(=O)O` [glutamine], the “podocyte cytosolic pH (CMFDA fluorescence)” value in test [1] is listed as “alkalinizes; also recorded: more alkaline cytosolic pH”. For the same molecule, the F-actin presence result in test [2] was “improved F-actin presence”. In addition, in test [3] (LPS-treated mice with glutamine vs LPS only), the “podocyte foot process effacement (electron microscopy)” value is recorded as “protects; also recorded: decreased foot process effacement”. In addition, the “glomerular pH (CMFDA fluorescence of isolated glomeruli)” value in test [3] (LPS-treated mice) is “increase in CMFDA fluorescence; also recorded: glomerular alkalinization; also recorded: increased alkalinity”; in test [3] (LPS-treated mice, listed as Glutamine), “increase in CMFDA fluorescence”. Also, in test [3] (LPS-treated mice, glutamine 0.75 mg/g i.p., 24 h), the “proteinuria (urinary protein/creatinine ratio)” value was “ameliorates; also recorded: significant lower”. Besides, the “cathepsin L activity in podocytes” value in test [4] (high glutamine in cell culture media, LPS or PAN treated podocytes) is on record as “lower”.

For `CN(C)c1ncnc2c1ncn2[C@@H]1O[C@H](CO)[C@@H](N)[C@H]1O` [PAN, puromycin aminonucleoside], the values for the glutamine uptake rate result in test [5], in test [6] and in test [7] were “stimulated”, “increasing glutamine uptake rate” and “increasing glutamine uptake rate”, respectively. Also, the “cathepsin L activity in podocytes” value in test [4] (effect of the injury stimulus itself) is reported as “stimulate”.

`O=C(NC(Cc1ccccc1)C(=O)NC(Cc1ccccc1)C(=O)CF)OCc1ccccc1` (stereo not drawn) [Z-FF-FMK, Z-Phe-Phe-FMK] (Cbz-Phe-Phe-CH2F; configuration not given here): the “inhibition of cathepsin B” value in test [8] was “does not inhibit”.
